# According to US20200316207A1, “POLYMERIC BILE ACID NANOPARTICLES AS ANTI-INFLAMMATORY AGENTS” (Yale University, priority 2015, published 2020):
# Assays:
# [1] = Loading of dye/agents in NPs; format: physicochemical
# Experimental: Polymer Synthesis and Nanoparticle (NP) formulation. […] Chloroform was utilized as the mobile phase with a flow rate of 1 mL/min and both the columns and RI detector were maintained at 40° C. MW characteristics were determined relative to a calibration curve generated from narrow polydispersity polystyrene standards (Aldrich Chemical). […] Polymers or the mixture (100 mg) was dissolved in 2 mL chloroform containing DIR (1 mg), coumarin 6 (10 mg), RAPA (10 mg) or iron oxide (1 mg). Phosphate-buffered saline (PBS, 100 μL) or the PBS containing INS (10 μg) was added dropwise to the chloroform polymer solution while vortexing and homogenized using an IKA T25 Digital Ultra-Turrax (IKA). This dispersant phase was then added dropwise to a continuous phase of 5% PVA and homogenized. The mixture was then added dropwise to 200 mL of 0.2% PVA and left stirring for 2 h to evaporate the solvent. NPs were collected by centrifugation at 12,000 rpm for 20 min at 4° C. and then washed 3 times with deionized water. The particles were lyophilized and stored at −20° C. The hydrodynamic diameter and surface charge of NPs were measured by a Malvern Zetasizer. A dispersion of NPs was filtrated through a 0.45 μm Millipore filter into cuvettes prior to the measurements. […] The morphology of the NPs was observed by Hitachi S-4800 High Resolution scanning electron microscopy (SEM, Norcross). A dispersion of NPs in ethanol (2 μL) was placed on the wafer substrate and dried at room temperature. The sample was mounted on the aluminum sample holder and then gold sputtered. […] NPs were dispersed in the media (citrate buffer solution, pH 2.0) at 37° C. in the presence of pepsin (10 mg/mL). At each time point, NPs were centrifuged, and supernatant was collected to measure the amount of DIR released from the particles using a plate reader (λex 750 nm, λem 790 nm, SpectraMax M5, Molecular Devices). Insulin release was quantified by the BCA assay.
# [2] = cited from earlier work
# [3] = tested on: mouse pancreatic β cell line (MIN6); assay: Insulin production from pancreatic β cells (MIN6) by TGR5 activation; format: cell-based; details: 40 μg/mL, 25 mM glucose, compared with PLGA particles
# Experimental: Concentration of insulin was measured using an Ultrasensitive Insulin ELISA kit (ALPCO). […] The pAkt production from CHO cells incubated with fresh or denatured insulin was compared to calculate percent bioactivity.
# Concentration of insulin was measured using an Ultrasensitive Insulin ELISA kit (ALPCO).
# [4] = tested on: rat microglia; details: cited from earlier work
# [5] = tested on: fibroblasts from patients with either sporadic or familial Alzheimer's disease; details: cited from earlier work
# [6] = Biodistribution and clearance of dye-loaded NPs after oral gavage; format: in vivo, mice; details: pancreas
# Experimental: B6, NOD, or Nude mice were fasted for 4 h and treated with DIR- or coumarin 6-encapsulating NPs by oral gavage (50, 100, or 500 mg/kg, 250 μL). Free DIR or coumarin 6 (solubilized with 1% Tween 20) served as controls. […] Fluorescence data was fit to the one component exponential decay model: Y=Yf+(Yo−e^−kt).
# Biodistribution in animals was conducted using fluorescent dye loaded pBA NPs. Animals were first fasted for 4 h prior to the experiment then orally gavaged with the NP formulations in saline followed by resumption of normal food and water. At 4 h post gavage, animals were euthanized, and organs were harvested to be fluorescently imaged. Quantitative fluorescence was conducted with a multispectral imaging platform (Bruker multispectral MS FX PRO imaging system).
molecule,measurement,setting,value
insulin,Loading of agent,[1],0.02 μg per mg of particles
same,loading of INS in pUDCA NPs,[1],approximately 20 ng/mg of NP
CCN(CC)c1ccc2cc(-c3nc4ccccc4s3)c(=O)oc2c1 [coumarin 6],Loading of agent,[1],84.3 μg per mg of particles
same,Log P,[2],1.8
"CC(CCC(=O)O)C1CC[C@H]2[C@@H]3[C@@H](O)C[C@@H]4C[C@H](O)CC[C@]4(C)[C@H]3CC[C@]12C (stereo partly shown) [UDCA, urso-deoxycholic acid]",insulin secretion from pancreatic β cells,[3],able to induce insulin secretion
same,"effect on IL-1β, nitric oxide, TNF-α",[4],"reduce IL-1β and nitric oxide, and downregulate TNF-α"
same,effect on mitochondrial function and Drp1,[5],improve mitochondrial function and redistributes Drp1
"CCCCCCCCCCCCCCCCCCN1C(=CC=CC=CC=CC2=[N+](CCCCCCCCCCCCCCCCCC)c3ccccc3C2(C)C)C(C)(C)c2ccccc21.[I-] [DIR, 1,1′-dioctadecyl-3,3,3′,3′-tetramethylindotricarbocyanine iodide]",Loading of agent,[1],6.7 μg per mg of particles
same,ΔY (Final-Initial),[6],1.42 % Initial Dose/cm^3
same,k (clearance rate),[6]; one phase decay fit,~0.01 h⁻¹
